Assay: Concentration of saturated solution of racemic HCl salt in EtOH, determined by HPLC
Type: physicochemical
Protocol: A saturated solution of racemic HCl salt is prepared by heating 50 g of salt in EtOH (350 ml) to reflux. A clear solution is formed. This is allowed to cool to 40° C. The mixture is seeded with a slurry of racemic HCl salt.
Crystallization is observed. This is allowed to equilibrate overnight. The mixture is filtered into the reaction vessel (preheated to 40° C.). This is heated to 60° C. to ensure complete dissolution, cooled to 40° C. and sampled to determine the concentration by HPLC. This is then cooled to 13° C. in increments of 1° C./5 min. At 13° C. a small amount of crystallisation is observed. A seed sample is also added and this is allowed to equilibrate overnight. A sample is removed for concentration determination at 13° C.

Concentration of sat. solution at 40° C. (equilibrated at 40° C.): 92.2 g/L
Concentration at 13° C. (equilibrated overnight at 13° C.): 69.74 g/L
SMILES: CC1N=C(N)NC(N(C)C)=N1 (racemic) [A1, 2-amino-3,6-dihydro-4-dimethylamino-6-methyl-1,3,5-triazine]

From patent US8742102B2, “Process for enantiomeric separation of racemic dihydro-1,3,5 triazines via preferential crystallization” (Poxel, priority 2009, dated 2014)
